Test system: 885512-296-R-J2-PDC complex spheroid viability
Experiment: Anticancer human tumor 885512-296-R-J2-PDC patient-derived breast carcinoma cell line growth inhibition [GQUAD]
Settings: for IC50: curve of first compound; for viability, T/C: stronger effect = lower value
Outline: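 Multi-cell-type spheroids of tumor cells with HUVEC and mesenchymal stem cells, treated with drug combinations. Concentrations descend in half-log steps from near clinical Cmax, or from 10 microM where Cmax is unknown; viability read-out.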

[1] = second compound 0.0316 µM, first compound 0.0316 µM
[2] = second compound 0.0316 µM, first compound 0.1 µM
[3] = second compound 0.0316 µM, first compound 0.316 µM
[4] = second compound 0.0316 µM, first compound 1 µM
[5] = second compound 0.0316 µM, first compound 3.16 µM
[6] = second compound 0.0316 µM, first compound 10 µM
[7] = second compound 0.1 µM, first compound 0.0316 µM
[8] = second compound 0.1 µM, first compound 0.1 µM
[9] = second compound 0.1 µM, first compound 0.316 µM
[10] = second compound 0.1 µM, first compound 1 µM
[11] = second compound 0.1 µM, first compound 3.16 µM
[12] = second compound 0.1 µM, first compound 10 µM
[13] = second compound 0.316 µM, first compound 0.0316 µM
[14] = second compound 0.316 µM, first compound 0.1 µM
[15] = second compound 0.316 µM, first compound 0.316 µM
[16] = second compound 0.316 µM, first compound 1 µM
[17] = second compound 0.316 µM, first compound 3.16 µM
[18] = second compound 0.316 µM, first compound 10 µM
[19] = second compound 1 µM, first compound 0.0316 µM
[20] = second compound 1 µM, first compound 0.1 µM
[21] = second compound 1 µM, first compound 0.316 µM
[22] = second compound 1 µM, first compound 1 µM
[23] = second compound 1 µM, first compound 3.16 µM
[24] = second compound 1 µM, first compound 10 µM
[25] = second compound 3.16 µM, first compound 0.0316 µM
[26] = second compound 3.16 µM, first compound 0.1 µM
[27] = second compound 3.16 µM, first compound 0.316 µM
[28] = second compound 3.16 µM, first compound 1 µM
[29] = second compound 3.16 µM, first compound 3.16 µM
[30] = second compound 3.16 µM, first compound 10 µM
[31] = second compound 10 µM, first compound 0.0316 µM
[32] = second compound 10 µM, first compound 0.1 µM
[33] = second compound 10 µM, first compound 0.316 µM
[34] = second compound 10 µM, first compound 1 µM
[35] = second compound 10 µM, first compound 3.16 µM
[36] = second compound 10 µM, first compound 10 µM
[37] = second compound 0.0316 µM, first compound 0.000999 µM
[38] = second compound 0.0316 µM, first compound 0.00316 µM
[39] = second compound 0.0316 µM, first compound 0.00999 µM
[40] = second compound 0.0316 µM, first compound 0.0999 µM
[41] = second compound 0.1 µM, first compound 0.000999 µM
[42] = second compound 0.1 µM, first compound 0.00316 µM
[43] = second compound 0.1 µM, first compound 0.00999 µM
[44] = second compound 0.1 µM, first compound 0.0999 µM
[45] = second compound 0.316 µM, first compound 0.000999 µM
[46] = second compound 0.316 µM, first compound 0.00316 µM
[47] = second compound 0.316 µM, first compound 0.00999 µM
[48] = second compound 0.316 µM, first compound 0.0999 µM
[49] = second compound 1 µM, first compound 0.000999 µM
[50] = second compound 1 µM, first compound 0.00316 µM
[51] = second compound 1 µM, first compound 0.00999 µM
[52] = second compound 1 µM, first compound 0.0999 µM
[53] = second compound 3.16 µM, first compound 0.000999 µM
[54] = second compound 3.16 µM, first compound 0.00316 µM
[55] = second compound 3.16 µM, first compound 0.00999 µM
[56] = second compound 3.16 µM, first compound 0.0999 µM
[57] = second compound 10 µM, first compound 0.000999 µM
[58] = second compound 10 µM, first compound 0.00316 µM
[59] = second compound 10 µM, first compound 0.00999 µM
[60] = second compound 10 µM, first compound 0.0999 µM
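Also: spheroids exposed to the compounds for one week.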
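For viability, T/C in this document: percent of tumor spheroid viability relative to DMSO vehicle control wells.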

CC(C)n1c(=O)n(C)c2cnc3cc(F)c(-c4ccc(OCCCN5CCCCC5)nc4)cc3c21 + Cc1[nH]c2ccc(F)cc2c1-c1nc2c3cccnc3c3ncccc3c2[nH]1
IC50 (second compound 0.0316 µM): > 10000 nM | IC50 (second compound 0.1 µM): > 10000 nM | IC50 (second compound 0.316 µM): > 10000 nM | IC50 (second compound 1 µM): 4450 nM | IC50 (second compound 3.16 µM): < 31.6 nM | IC50 (second compound 10 µM): < 31.6 nM | viability, T/C [1]: 84.4% | viability, T/C [2]: 82.5% | viability, T/C [3]: 83.2% | viability, T/C [4]: 103% | viability, T/C [5]: 112% | viability, T/C [6]: 98.9% | viability, T/C [7]: 92.1% | viability, T/C [8]: 92.3% | viability, T/C [9]: 88% | viability, T/C [10]: 104% | viability, T/C [11]: 104% | viability, T/C [12]: 122% | viability, T/C [13]: 89.1% | viability, T/C [14]: 77.6% | viability, T/C [15]: 89.7% | viability, T/C [16]: 90% | viability, T/C [17]: 103% | viability, T/C [18]: 67.3% | viability, T/C [19]: 48.6% | viability, T/C [20]: 68.2% | viability, T/C [21]: 63.9% | viability, T/C [22]: 66% | viability, T/C [23]: 68.8% | viability, T/C [24]: 19% | viability, T/C [25]: 7.3% | viability, T/C [26]: 8.5% | viability, T/C [27]: 13.1% | viability, T/C [28]: 10% | viability, T/C [29]: 10.8% | viability, T/C [30]: 1.66% | viability, T/C [31]: 1.24% | viability, T/C [32]: 4.55% | viability, T/C [33]: 2.57% | viability, T/C [34]: 2.18% | viability, T/C [35]: 2.19% | viability, T/C [36]: 1.31%

COc1cccc2c1C(=O)c1c(O)c3c(c(O)c1C2=O)CC(O)(C(=O)CO)CC3OC1CC(N)C(O)C(C)O1 (stereo not drawn) + Cc1cnc(CNC(=O)c2c(=O)c3ccc(N4CCCN(C)CC4)nc3n3c2sc2ccccc23)cn1
IC50 (second compound 0.0316 µM): 60.1 nM | IC50 (second compound 0.1 µM): < 31.6 nM | IC50 (second compound 0.316 µM): < 31.6 nM | IC50 (second compound 1 µM): < 31.6 nM | IC50 (second compound 3.16 µM): < 31.6 nM | IC50 (second compound 10 µM): < 31.6 nM | viability, T/C [1]: 71% | viability, T/C [2]: 30.1% | viability, T/C [3]: 21.9% | viability, T/C [4]: 4.72% | viability, T/C [5]: 0.41% | viability, T/C [6]: 2.74% | viability, T/C [7]: 50.4% | viability, T/C [8]: 27.2% | viability, T/C [9]: 20.9% | viability, T/C [10]: 10.3% | viability, T/C [11]: 0.59% | viability, T/C [12]: 2.89% | viability, T/C [13]: 28.2% | viability, T/C [14]: 23.7% | viability, T/C [15]: 18.5% | viability, T/C [16]: 8.18% | viability, T/C [17]: 0.4% | viability, T/C [18]: 1.91% | viability, T/C [19]: 19.8% | viability, T/C [20]: 25.2% | viability, T/C [21]: 13.7% | viability, T/C [22]: 3.8% | viability, T/C [23]: 0.09% | viability, T/C [24]: 0.32% | viability, T/C [25]: 26.7% | viability, T/C [26]: 25.6% | viability, T/C [27]: 15.1% | viability, T/C [28]: 0.12% | viability, T/C [29]: 0.12% | viability, T/C [30]: 0.15% | viability, T/C [31]: 0.07% | viability, T/C [32]: 0.14% | viability, T/C [33]: 0.22% | viability, T/C [34]: 0.15% | viability, T/C [35]: 0.2% | viability, T/C [36]: 0.21%

Cn1ncnc1[C@H]1c2n[nH]c(=O)c3cc(F)cc(c23)N[C@@H]1c1ccc(F)cc1 + CN(C)c1ccc(Nc2c3ccc(NC(=O)CCN4CCCC4)cc3nc3cc(NC(=O)CCN4CCCC4)ccc23)cc1
IC50 (second compound 0.0316 µM): 208 nM | IC50 (second compound 0.1 µM): > 316 nM | IC50 (second compound 0.316 µM): 215 nM | IC50 (second compound 1 µM): 195 nM | IC50 (second compound 3.16 µM): 74 nM | IC50 (second compound 10 µM): < 0.999 nM | viability, T/C [37]: 90% | viability, T/C [38]: 96.1% | viability, T/C [39]: 91.3% | viability, T/C [1]: 90.5% | viability, T/C [40]: 64.3% | viability, T/C [3]: 41.9% | viability, T/C [41]: 112% | viability, T/C [42]: 91.8% | viability, T/C [43]: 99.3% | viability, T/C [7]: 75.9% | viability, T/C [44]: 71.6% | viability, T/C [9]: 53.9% | viability, T/C [45]: 112% | viability, T/C [46]: 101% | viability, T/C [47]: 94.4% | viability, T/C [13]: 79.5% | viability, T/C [48]: 61.5% | viability, T/C [15]: 44% | viability, T/C [49]: 96.8% | viability, T/C [50]: 94% | viability, T/C [51]: 90.4% | viability, T/C [19]: 81.4% | viability, T/C [52]: 57.8% | viability, T/C [21]: 44.2% | viability, T/C [53]: 95.2% | viability, T/C [54]: 96.9% | viability, T/C [55]: 93.8% | viability, T/C [25]: 64.7% | viability, T/C [56]: 47.8% | viability, T/C [27]: 36% | viability, T/C [57]: 18.6% | viability, T/C [58]: 23% | viability, T/C [59]: 25% | viability, T/C [31]: 20.3% | viability, T/C [60]: 19.1% | viability, T/C [33]: 15.5%

Cc1[nH]c2ccccc2c1CCNCc1ccc(/C=C/C(=O)NO)cc1 + CN(C)c1ccc(Nc2c3ccc(NC(=O)CCN4CCCC4)cc3nc3cc(NC(=O)CCN4CCCC4)ccc23)cc1
IC50 (second compound 0.0316 µM): 26.3 nM | IC50 (second compound 0.1 µM): 24.8 nM | IC50 (second compound 0.316 µM): 20.3 nM | IC50 (second compound 1 µM): 30.8 nM | IC50 (second compound 3.16 µM): 8.45 nM | IC50 (second compound 10 µM): < 0.999 nM | viability, T/C [37]: 96.5% | viability, T/C [38]: 84.1% | viability, T/C [39]: 70.8% | viability, T/C [1]: 40.1% | viability, T/C [40]: 30.1% | viability, T/C [3]: 3.59% | viability, T/C [41]: 95.6% | viability, T/C [42]: 91.7% | viability, T/C [43]: 64.8% | viability, T/C [7]: 44.1% | viability, T/C [44]: 25.3% | viability, T/C [9]: 4.19% | viability, T/C [45]: 103% | viability, T/C [46]: 93.2% | viability, T/C [47]: 63% | viability, T/C [13]: 35.9% | viability, T/C [48]: 28.6% | viability, T/C [15]: 4.61% | viability, T/C [49]: 85.7% | viability, T/C [50]: 94.4% | viability, T/C [51]: 63.7% | viability, T/C [19]: 48% | viability, T/C [52]: 29.5% | viability, T/C [21]: 4.03% | viability, T/C [53]: 80% | viability, T/C [54]: 64.7% | viability, T/C [55]: 46.5% | viability, T/C [25]: 30.1% | viability, T/C [56]: 24.6% | viability, T/C [27]: 5.49% | viability, T/C [57]: 18.2% | viability, T/C [58]: 17.7% | viability, T/C [59]: 11.3% | viability, T/C [31]: 10.3% | viability, T/C [60]: 13% | viability, T/C [33]: 2.87%

From PubChem BioAssay AID2060490 (Molecular Pharmacology Branch, DTP, NCI, 2025)
